Assay results published in patent US9051345B2, “Metalloinsertor complexes targeted to DNA mismatches” (CALIFORNIA INSTITUTE OF TECHNOLOGY, priority 2011, dated 2015).

Key:
[1] = test system: HCT116N and HCT116O cells; assay: Cell cycle distribution flow cytometry assay (PI); assay type: cell-based, human; details: 20 μM, 24 and 48 hours
Description: Cells were harvested from adherent culture by trypsinization and washed with cold PBS. The resultant pellet was resuspended in PBS (chilled to 4° C.), and ice-cold ethanol was added dropwise to a final concentration of 70% (v/v), with continuous gentle agitation. Cells were fixed at 4° C. for 30 minutes and stored for up to one week. Prior to analysis, the fixed cells in 70% ethanol were diluted 1:3 in cold PBS and centrifuged at 1,400×g for 5 minutes. The resultant pellet was washed twice and resuspended in ice-cold PBS. Ribonuclease was added to a final concentration of 30 μg/mL and the cells were incubated overnight at 4° C. The next day propidium iodide was added to a final concentration of 20 μg/mL and cells were analyzed by flow cytometry. Data analysis was performed using the FloJo software package (v 8.7.1).

HCT116N cells = assay: MTT cytotoxicity assay; assay type: cell-based, human; details: 72 hours
Description: Cytotoxicity assays were performed as described in Mosmann, 1983, J. Immunol. Methods, 65, 55-63, the entire contents of which is incorporated herein by reference. HCT116N and HCT116O cells were plated in 96-well plates at 50,000 cells/well and incubated with rhodium for the durations specified. After incubation with the indicated rhodium complexes, cells were labeled with MTT for 4 hours at 37° C. under 5% CO2 and humidified atmosphere. The resulting formazan crystals were dissolved with solubilizing reagent purchased from Roche according to the manufacturer's instructions. The dissolved formazan was quantified as the absorbance at 570 nm minus the background absorbance at 690 nm. Percent viability was determined as the ratio of the amount of formazan in the treated cells to that of the untreated cells.
In order to elucidate the mechanism of action for the cytotoxicity caused by a metalloinsertor complex of Formula I, the MTT cytotoxicity assay was repeated in the absence and presence of the pan-caspase inhibitor Z-VAD-FMK. This inhibitor works by irreversibly binding to the active site of caspases which participate in the apoptotic pathway. Z-VAD-FMK was added to a final concentration of 20 μM. The HCT116N and HCT116O cell lines were treated with 0-30 μM of the [Rh(HDPA)2chrysi]^3+ complex for 24-72 hours. In addition, each treatment was also combined with the inhibitor at a final concentration of 20 μM.
In order to determine the mechanism of action for cytotoxicity caused by a metalloinsertor complex of Formula I, the MTT cytotoxicity assay was repeated in conjunction with a panel of poly-ADP ribose polymerase (PARP) inhibitors: DPQ, 3-AB, 4-AN, and ABT-888, as described in Costantino et al., 2001, J. Med. Chem., 44, 3786-3794; Purnell et al., 1980, Biochem. J. 185, 775-777; Banasik et al., 1992, J. Biol. Chem. 267, 1569-1575; and Donawho et al., 2007, Clin. Cancer Res., 13, 2728-2737, the entire contents of all of which are incorporated herein by reference. […]

[Rh(HDPA)2chrysi]^3+
effect on the cell cycle [1]: disruption of the cell cycle | number of viable HCT116N cells, % of untreated controls (HCT116N cells; 20 μM): 80±5.2% | cell viability HCT116N with caspase inhibitor (HCT116N cells; 30 μM metal complex, with Z-VAD-FMK at 20 M (so in the source)): 52±9.8% | cell viability HCT116N (HCT116N cells; 30 μM metal complex, without inhibitor): 63±5.7%
